Holding throughout (assay type): cell-based
Assay [1] addresses T1, GLP-1 receptor (Homo sapiens, UniProt P43220). The experiment in a line: PathHunter β-arrestin assay, GLP-1 receptor. Particulars: β-arrestin-2 recruitment, PathHunter CHO-K1 GLP1R β-Arrestin Cell Line, 90 min at 37° C.; normalized to GLP-1; read-out: GLP-1R β Arrestin EC50. Set-up: host or cells: PathHunter CHO-K1 GLP1R β-Arrestin Cell Line. (Activated receptors often draw arrestin, which recruitment assays turn into a signal.)

Assay [2] deals with T2, GIP receptor (Homo sapiens, UniProt P48546).
T2 sequence (P48546 22-466): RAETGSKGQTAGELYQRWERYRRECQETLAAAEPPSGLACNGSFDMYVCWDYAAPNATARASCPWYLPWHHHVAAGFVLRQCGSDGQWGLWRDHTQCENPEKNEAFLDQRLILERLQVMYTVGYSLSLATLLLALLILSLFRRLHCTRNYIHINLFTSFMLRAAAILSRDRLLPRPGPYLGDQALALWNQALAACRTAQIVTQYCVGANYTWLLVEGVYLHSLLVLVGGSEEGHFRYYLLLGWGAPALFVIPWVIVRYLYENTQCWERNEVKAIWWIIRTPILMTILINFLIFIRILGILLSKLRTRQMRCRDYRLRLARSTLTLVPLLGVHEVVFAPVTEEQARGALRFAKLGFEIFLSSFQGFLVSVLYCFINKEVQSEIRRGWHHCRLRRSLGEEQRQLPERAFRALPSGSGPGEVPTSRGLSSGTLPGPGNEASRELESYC
The experiment in a line: HitHunter cAMP assay, GIP receptor. Particulars: for pEC50: CHO cells stably expressing GIP receptor, cAMP accumulation, 30 min, read-out: EC50 GIP-1R; for Emax: CHO cells, cAMP, normalized to maximum signal from GIP (high) and DMSO (low), read-out: Emax GIP-1R. For orientation: Cyclic AMP is a second messenger, typically raised through Gs and lowered through Gi signalling.

For assay [3], the target named is T2, GIP receptor. Briefly: PathHunter β-arrestin assay, GIP receptor. The arrangement: host or cells: PathHunter CHO-K1 GIPR β-Arrestin Cell Line. Particulars: β-arrestin-2 recruitment, PathHunter CHO-K1 GIPR β-Arrestin Cell Line, 90 min at 37° C.; normalized to GIP; read-out: GIPR β Arrestin EC50.
For assay [4], the target named is T1, GLP-1 receptor. Briefly: HitHunter cAMP assay, GLP-1 receptor. Particulars: for pEC50: CHO cells stably expressing human GLP-1 receptor, cAMP accumulation, 30 min, read-out: EC50 GLP-1R; for Emax: CHO cells, cAMP, normalized to maximum signal from GLP-1 (high) and DMSO (low), read-out: Emax GLP-1R.

pEC50: −log10 of the molar value. *1 amine or outer side, *2 acyl side, *3 side chain or, on linkers, in order; H or OH if unused. Where a SMILES comes first, the peptide text is derived from it. Side-chain parts run from the residue outwards. [ ]: non-standard residue; d: D form. The star is where a group is joined. C20 diacid = O=C(O)CCCCCCCCCCCCCCCCCCC(=O)*; γGlu = O=C(O)[C@H](CCC(=O)[*:2])N[*:1]; Phe(2-F) = N[C@@H](Cc1ccccc1F)C(=O)O; X20 = O=C(C1(c2ccc(Cl)cc2)CCOCC1)*; X51 = COc1cccc(C2(C(=O)*)CCCC2)c1; X55 = COc1cccc(C(C)(C)C(=O)*)c1; X60 = O=C(C1(c2cccnc2)CCCC1)*; AEEA = NCCOCCOCC(=O)O; Aib = CC(C)(N)C(=O)O; βAla = NCCC(=O)O

T1 sequence (P43220 24-463): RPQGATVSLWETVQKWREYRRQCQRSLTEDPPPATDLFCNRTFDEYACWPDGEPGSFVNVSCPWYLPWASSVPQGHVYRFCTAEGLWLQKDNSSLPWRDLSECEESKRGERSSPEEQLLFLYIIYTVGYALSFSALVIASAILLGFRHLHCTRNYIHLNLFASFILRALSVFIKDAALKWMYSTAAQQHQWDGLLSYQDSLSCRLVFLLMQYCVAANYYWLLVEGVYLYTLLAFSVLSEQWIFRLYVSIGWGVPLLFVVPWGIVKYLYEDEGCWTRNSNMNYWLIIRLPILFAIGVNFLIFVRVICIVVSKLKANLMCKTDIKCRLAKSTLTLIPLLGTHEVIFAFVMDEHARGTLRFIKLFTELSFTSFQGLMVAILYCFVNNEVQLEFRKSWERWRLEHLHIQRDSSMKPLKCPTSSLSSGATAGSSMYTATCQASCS

One may read the pEC50 as the negative decadic logarithm of the EC50, by convention in mol/L. As a reminder, the Emax is the maximal effect, on the per cent scale that the assay sets. Consider `CC[C@H](C)[C@H](NC(=O)[C@H](CO)NC(=O)[C@H](Cc1ccc(O)cc1)NC(=O)[C@H](CC(=O)O)NC(=O)[C@H](CO)NC(=O)[C@@H](NC(=O)[C@H](Cc1ccccc1)NC(=O)[C@@H](NC(=O)CNC(=O)[C@H](CCC(=O)O)NC(=O)CCNC(=O)C(C)(C)c1cc(F)cc(C#N)c1)[C@@H](C)O)[C@@H](C)O)C(=O)N[C@@H](Cc1ccc(O)cc1)C(=O)N[C@@H](CC(C)C)C(=O)N[C@@H](CC(=O)O)C(=O)N[C@@H](CCCCN)C(=O)N[C@@H](CCC(N)=O)C(=O)N[C@@H](C)C(=O)N[C@@H](C)C(=O)N[C@@H](CCCCNC(=O)COCCOCCNC(=O)COCCOCCNC(=O)CC[C@H](NC(=O)CCCCCCCCCCCCCCCCCCC(=O)O)C(=O)O)C(=O)N[C@@H](CCC(=O)O)C(=O)N[C@@H](Cc1ccccc1)C(=O)N[C@H](C(=O)N[C@@H](CC(N)=O)C(=O)N[C@@H](Cc1c[nH]c2ccccc12)C(=O)N[C@@H](CC(C)C)C(=O)N[C@@H](CC(C)C)C(=O)N[C@@H](C)C(=O)NCC(=O)NCC(=O)N1CCC[C@H]1C(=O)N[C@@H](CO)C(=O)N[C@@H](CO)C(=O)NCC(=O)N[C@@H](C)C(=O)N1CCC[C@H]1C(=O)N1CCC[C@H]1C(=O)N1CCC[C@H]1C(=O)N[C@@H](CO)C(N)=O)C(C)C` [Compound 184], for which the pEC50 in assay [1] was under 6.00; in assay [2], 6.00 to 7.00; in assay [3] it was under 6.00; in assay [4], 8.00 to 9.00. Further, the Emax in assay [2] stood at 90%; in assay [4] it was 99%.
Take `CC[C@H](C)[C@H](NC(=O)[C@H](CC(C)C)NC(=O)[C@H](Cc1c[nH]c2ccccc12)NC(=O)[C@H](CCC(N)=O)NC(=O)[C@@H](NC(=O)[C@H](Cc1ccccc1)NC(=O)[C@H](C)NC(=O)[C@H](CCCCNC(=O)COCCOCCNC(=O)COCCOCCNC(=O)CC[C@H](NC(=O)CCCCCCCCCCCCCCCCCCC(=O)O)C(=O)O)NC(=O)[C@H](CCC(N)=O)NC(=O)[C@H](C)NC(=O)[C@@H](NC(=O)[C@H](CCCCN)NC(=O)[C@H](CC(=O)O)NC(=O)[C@H](CC(C)C)NC(=O)C(C)(C)NC(=O)[C@@H](NC(=O)[C@H](CO)NC(=O)[C@H](Cc1ccc(O)cc1)NC(=O)[C@H](CC(=O)O)NC(=O)[C@H](CO)NC(=O)[C@@H](NC(=O)[C@H](Cc1ccccc1F)NC(=O)[C@@H](NC(=O)CNC(=O)[C@H](CCC(=O)O)NC(=O)CCNC(=O)C1(c2cccnc2)CCCC1)[C@@H](C)O)[C@@H](C)O)[C@@H](C)CC)[C@@H](C)CC)C(C)C)C(=O)N[C@@H](C)C(=O)NCC(=O)NCC(=O)N1CCC[C@H]1C(=O)N[C@@H](CO)C(=O)N[C@@H](CO)C(=O)NCC(=O)N[C@@H](C)C(=O)N1CCC[C@H]1C(=O)N1CCC[C@H]1C(=O)N1CCC[C@H]1C(=O)N[C@@H](CO)C(N)=O` [Compound 231] ({X60-βAla}-EGT[Phe(2-F)]TSDYSI[Aib]LDKIAQK([AEEA-AEEA-γGlu-C20 diacid])AFVQWLIAGGPSSGAPPPS-NH2): the pEC50 in assay [1] was under 6.00; in assay [2], 9.00 to 10.00; in assay [3], under 6.00; in assay [4] it was 9.00 to 10.00. Further, the Emax turned out to be 110% in assay [2] and 111% in assay [4].
For the compound `CC[C@H](C)[C@H](NC(=O)[C@H](CC(C)C)NC(=O)[C@H](Cc1c[nH]c2ccccc12)NC(=O)[C@H](CCC(N)=O)NC(=O)[C@@H](NC(=O)[C@H](Cc1ccccc1)NC(=O)[C@H](C)NC(=O)[C@H](CCCCNC(=O)COCCOCCNC(=O)COCCOCCNC(=O)CC[C@H](NC(=O)CCCCCCCCCCCCCCCCCCC(=O)O)C(=O)O)NC(=O)[C@H](CCC(N)=O)NC(=O)[C@H](C)NC(=O)[C@@H](NC(=O)[C@H](CCCCN)NC(=O)[C@H](CC(=O)O)NC(=O)[C@H](CC(C)C)NC(=O)C(C)(C)NC(=O)[C@@H](NC(=O)[C@H](CO)NC(=O)[C@H](Cc1ccc(O)cc1)NC(=O)[C@H](CC(=O)O)NC(=O)[C@H](CO)NC(=O)[C@@H](NC(=O)[C@H](Cc1ccccc1)NC(=O)[C@@H](NC(=O)CNC(=O)[C@H](CCC(=O)O)NC(=O)CCNC(=O)C1(c2cccc(OC)c2)CCCC1)[C@@H](C)O)[C@@H](C)O)[C@@H](C)CC)[C@@H](C)CC)C(C)C)C(=O)N[C@@H](C)C(=O)NCC(=O)NCC(=O)N1CCC[C@H]1C(=O)N[C@@H](CO)C(=O)N[C@@H](CO)C(=O)NCC(=O)N[C@@H](C)C(=O)N1CCC[C@H]1C(=O)N1CCC[C@H]1C(=O)N1CCC[C@H]1C(=O)N[C@@H](CO)C(N)=O` [Compound 207] ({X51-βAla}-EGTFTSDYSI[Aib]LDKIAQK([AEEA-AEEA-γGlu-C20 diacid])AFVQWLIAGGPSSGAPPPS-NH2), the pEC50 is under 6.00 in assay [1], 8.00 to 9.00 in assay [2], under 6.00 in assay [3] and 8.00 to 9.00 in assay [4]. For the same compound, the Emax was found to be 109% in assay [2] and 97% in assay [4].
Take `CC[C@H](C)[C@H](NC(=O)[C@H](CC(C)C)NC(=O)[C@H](Cc1c[nH]c2ccccc12)NC(=O)[C@H](CCC(N)=O)NC(=O)[C@@H](NC(=O)[C@H](Cc1ccccc1)NC(=O)[C@H](C)NC(=O)[C@H](CCCCNC(=O)COCCOCCNC(=O)COCCOCCNC(=O)CC[C@H](NC(=O)CCCCCCCCCCCCCCCCCCC(=O)O)C(=O)O)NC(=O)[C@H](CCC(N)=O)NC(=O)[C@H](C)NC(=O)[C@@H](NC(=O)[C@H](CCCCN)NC(=O)[C@H](CC(=O)O)NC(=O)[C@H](CC(C)C)NC(=O)C(C)(C)NC(=O)[C@@H](NC(=O)[C@H](CO)NC(=O)[C@H](Cc1ccc(O)cc1)NC(=O)[C@H](CC(=O)O)NC(=O)[C@H](CO)NC(=O)[C@@H](NC(=O)[C@H](Cc1ccccc1)NC(=O)[C@@H](NC(=O)CNC(=O)[C@H](CCC(=O)O)NC(=O)CCNC(=O)C1(c2ccc(Cl)cc2)CCOCC1)[C@@H](C)O)[C@@H](C)O)[C@@H](C)CC)[C@@H](C)CC)C(C)C)C(=O)N[C@@H](C)C(=O)NCC(=O)NCC(=O)N1CCC[C@H]1C(=O)N[C@@H](CO)C(=O)N[C@@H](CO)C(=O)NCC(=O)N[C@@H](C)C(=O)N1CCC[C@H]1C(=O)N1CCC[C@H]1C(=O)N1CCC[C@H]1C(=O)N[C@@H](CO)C(N)=O` [Compound 172] ({X20-βAla}-EGTFTSDYSI[Aib]LDKIAQK([AEEA-AEEA-γGlu-C20 diacid])AFVQWLIAGGPSSGAPPPS-NH2): the pEC50 in assay [1] was under 6.00; in assay [2], 8.00 to 9.00; in assay [3], under 6.00; in assay [4], 8.00 to 9.00. Also, the Emax in assay [2] came out at 109%; in assay [4] it was 89%.
Turning to `CC[C@H](C)[C@H](NC(=O)[C@H](CC(C)C)NC(=O)[C@H](Cc1c[nH]c2ccccc12)NC(=O)[C@H](CCC(N)=O)NC(=O)[C@@H](NC(=O)[C@H](Cc1ccccc1)NC(=O)[C@H](C)NC(=O)[C@H](CCCCNC(=O)COCCOCCNC(=O)COCCOCCNC(=O)CC[C@H](NC(=O)CCCCCCCCCCCCCCCCCCC(=O)O)C(=O)O)NC(=O)[C@H](CCC(N)=O)NC(=O)[C@H](C)NC(=O)[C@@H](NC(=O)[C@H](CCCCN)NC(=O)[C@H](CC(=O)O)NC(=O)[C@H](CC(C)C)NC(=O)C(C)(C)NC(=O)[C@@H](NC(=O)[C@H](CO)NC(=O)[C@H](Cc1ccc(O)cc1)NC(=O)[C@H](CC(=O)O)NC(=O)[C@H](CO)NC(=O)[C@@H](NC(=O)[C@H](Cc1ccccc1)NC(=O)[C@@H](NC(=O)CNC(=O)[C@H](CCC(=O)O)NC(=O)CCNC(=O)C(C)(C)c1cccc(OC)c1)[C@@H](C)O)[C@@H](C)O)[C@@H](C)CC)[C@@H](C)CC)C(C)C)C(=O)N[C@@H](C)C(=O)NCC(=O)NCC(=O)N1CCC[C@H]1C(=O)N[C@@H](CO)C(=O)N[C@@H](CO)C(=O)NCC(=O)N[C@@H](C)C(=O)N1CCC[C@H]1C(=O)N1CCC[C@H]1C(=O)N1CCC[C@H]1C(=O)N[C@@H](CO)C(N)=O` [Compound 209] ({X55-βAla}-EGTFTSDYSI[Aib]LDKIAQK([AEEA-AEEA-γGlu-C20 diacid])AFVQWLIAGGPSSGAPPPS-NH2), the pEC50 in assay [1] is under 6.00; in assay [2] it was 7.00 to 8.00; in assay [3], under 6.00; in assay [4], 9.00 to 10.00. Besides, the results for the Emax in assay [2] and in assay [4] were 105% and 101%, respectively.

The values are drawn from US12281149B2, “Modulators of G-protein coupled receptors” (priority 2021, dated 2025).
